In patent publication US20120003329A1, “Use of A2B Adenosine Receptor Antagonists for Treating Pulmonary Hypertension” (Gilead Sciences, Inc., priority 2010, published 2012):

Experiments:
HPAECs [1] = assay: Release of IL-8 in endothelial cells (ELISA); type: cell-based, human; conditions: NECA 10 μM with Compound A 100 nM, 18 hr
Experimental: (§1) HPASM were grown in smooth muscle growth medium (SMGM-2). HPAECs were grown in endothelium growth medium (EGM-2). Before treatment, cells were seeded in 24-well plates and allowed to grow to ˜80% confluency. Cells were washed and then incubated in serum free basal medium in the absence or presence of adenosine receptor agonists and antagonists. In the proliferation assays, HPASM were incubated in 50% medium collected from HPAEC cells treated with vehicle or NECA.
(§2) IL-6 and G-CSF were measured using human 30-plex luminex kit from Invitrogen (Carlsbad, Calif.). IL-8, endothelin-1, thromboxane B2 were measured using ELISA (kits obtained from Invitrogen, AssayDesigns (Ann Arbor, Mich.), and Caymen Biomedicals (Ann, Arbor, Mich.) respectively).
HPAECs were incubated in basal medium in the absence or presence of NECA (N-ethylcarboxamide adenosine) at various concentrations (0.1 μM, 1 μM, and 10 μM) and Compound A (100 nM) for 18 hours. NECA is a known adenosine agonist of A1 and A2 subtypes. The amount of IL-8, provided in pg/mL, was measured by ELISA.

HPAECs [2] = assay: Endothelin-1 release from HPAECs (ELISA); type: cell-based, human; conditions: NECA 10 μM with Compound A 100 nM, 18 hr
Experimental: as §1, §2
HPAECs were incubated in the absence or presence of NECA at various concentrations (0.1 μM, 1 μM, and 10 μM) and Compound A (100 nM) for 18 hours. The amount of ET-1, provided in pg/mL was measured by the ELISA protocol discussed above.

HPASMs [3] = assay: Cytokine release from HPASMs (IL-6, IL-8, G-CSF); type: cell-based, human; conditions: NECA 10 μM with Compound A 100 nM, 18 hr
Experimental: as §1, §2
(§3) HPASMs were incubated in the absence or presence of NECA at various concentrations (0.1 μM, 1 μM, and 10 μM) and Compound A (100 nM) for 18 hours.

HPASMs [4] = assay: Smooth muscle cell migration, Boyden chamber with conditional media; type: cell-based, human; conditions: conditional medium from HPASMs, NECA 10 μM and Compound A 100 nM, 18 hours; migration 24 hours
Experimental: Conditional media were collected from HPASMs treated with vehicle, NECA (10 μM), NECA (10 μM) and Compound A (100 nM), or NECA (10 μM) and an anti-IL-6 antibody (1 ng/mL, purchased from Invitrogen) for 18 hours were added to the lower wells of Boyden chamber assay systems as chemoattractants. HPASMs were allowed to migrate for 24 hours. […] It was also observed that IL-8 neutralizing antibody had no effect on cell migration. […] The released IL-6 in turn enhances smooth muscle cell migration (see FIG. 10B for illustration).

HPASMs [5] = assay: Thromboxane B2 release from HPASMs (ELISA); type: cell-based, human; conditions: NECA 10 μM with Compound A 100 nM, 18 hours
Experimental: as §1, §2, §3

HPASMs [6] = assay: Expression of collagen, extracellular matrix proteins and enzymes, real-time RT-PCR array; type: cell-based, human; conditions: NECA 10 μM together with Compound A 100 nM, 1.5 hours
Experimental: (§4) Gene expression was determined using real-time RT-PCR with Stratagene PCR equipment (La Jolla, Calif.). Zhong H., et al. “A2B adenosine receptors increase cytokine release by bronchial smooth muscle cells, “American Journal of Respiratory Cell and Molecular Biology, 30(1): 118-125 (2004).
HPASMs were incubated in the presence of NECA (10 μM) or NECA (10 μM) together with Compound A (100 nM) for 1.5 hours. A real-time-RT-PCR array focusing on genes involved in tissue remodeling were conducted on the RNAs isolated from the HPASMs. NECA increased the mRNA expression of ADAMTS1, ADAMTS8, CDH1, MMPI, MMP12, HAS1, ITGA7, COL1A1, COL8A1 and CTGF (FIG. 12A-B).

HPASMs [7] = assay: Effect of NECA-activated HPAECs on proliferation of HPASMs (cell count); type: cell-based, human; conditions: supernatant of HPAECs treated with NECA 10 μM and Compound A 100 nM for 18 hours; HPASMs 18 hours
Experimental: as §1
Cell supernatants were collected from HPAECs treated with vehicle (control medium), NECA (10 μM, NECA medium) or NECA and Compound A (100 nM) for 18 hours. These cell supernatants (diluted 1:1 in […] basal medium) with or without ambrisentan (30 nM) were used to incubate HPASMs for 18 hours. Cells were counted. NECA-HPAEC medium increased cell number of HPASMs at 18 hours compared to control-HPAEC medium.

HPASMs [8] = assay: NECA-induced expression of NOTCH3 in HPASMs (real-time RT-PCR); type: cell-based, human; conditions: NECA 10 μM along with Compound A 100 nM, 1.5 hours
Experimental: as §4
HPASMs were incubated with NECA (10 μM) or NECA (10 μM) along with Compound A (100 nM) for 1.5 hours. The expression of NOTCH3 was measured by quantitive real-time RT-PCR using the methodologies described above.

[9] = test system: adenosine deaminase (ADA)-deficient mouse model of adenosine-dependent pulmonary injury; assay: Vascular wall thickening in the lungs of ADA-deficient mice (H&E staining); type: in vivo; conditions: 1 mg/kg intraperitoneal twice daily for 14 days, lungs at postnatal day 38
From the text: The model system being used is the adenosine deaminase (ADA)-deficient mouse model of adenosine-dependent pulmonary injury.
This example follows the protocol described in Sun C X, et al. “Role of A2B adenosine receptor signaling in adenosine-dependent pulmonary inflammation and injury,” J. Clin. Invest., 116(8):2173-2182 (2006), which is hereby incorporated by reference.
All ADA-deficient mice were maintained on ADA enzyme therapy from birth to postnatal day 21 to prevent defects in alveolar development. Banerjee, et al. Am. J. Respir. Cell Mol. Biol. 30-38-50 (2004). ADA enzyme therapy was discontinued at postnatal day 21, and 3 days later the mice were given intraperitoneal injections of 1 mg/kg of Compound A twice daily for 14 days.
Lungs were collected from postnatal day 38 mice and prepared routinely for sectioning and H&E staining Tissues were taken from control (ADA+) mice (FIG. 3A), the ADA-deficient mice (FIG. 3B), and the ADA-deficient mouse treated with Compound A (FIG. 3C). Sections are representative of 6-8 different mice from each treatment group.

[10] = test system: Male C57BL6 mice treated with bleomycin (BLM); assay: Bleomycin-induced pulmonary hypertension associated with chronic lung disease in mice; type: in vivo
Experimental: Methods: Male C57BL6 mice were treated with bleomycin (BLM) at 0.035 units per mouse, or vehicle (phosphate buffered saline (PBS)) intra-peritoneally twice weekly for 4 weeks. When pulmonary fibrosis was established, on day 15, mice were provided with special chow containing an A2B receptor antagonist, Compound A (˜10 mg/kg/day dose), for the next 18 days (FIG. 15). In contrast, control groups received normal chow.
On day 33, right ventricle systolic pressure (RVSP), systemic blood pressure, heart rate and lung function measurements were performed. Additionally, the lungs were collected for immunohistochemistry (IHC) for α-smooth muscle actin (αSMA).
Statistical Analysis: All data were analyzed using a 1-way ANOVA with a Newman-Keuls post test. The software used to conduct the statistical analysis was Graph-Pad Prism v5.00 (La Jolla Calif.). In all related figures, significance levels: *P<0.05, **[…]<P<0.01, ***P<0.001 refer to comparisons between PBS and BLM groups; significance levels: #P<0.05, # # 0.001<P<0.01, # # # P<0.001 refer to comparisons between BLM and BLM+Compound A groups. All values in the figures represent mean±SEM (standard error or the mean) for 5-8 mice per group.

[11] = mice, Compound A ~10 mg/kg/day in chow day 15 to 33, day 33
[12] = mice, Compound A ~10 mg/kg/day in chow day 15 to 33, α-SMA immunostaining
[13] = mice, Compound A ~10 mg/kg/day in chow, Flexivent

CCCn1c(=O)c2[nH]c(-c3cnn(Cc4cccc(C(F)(F)F)c4)c3)nc2n(CC)c1=O [Compound A, 3-ethyl-1-propyl-8-(1-(3-(trifluoromethyl)benzyl)-1H-pyrazol-4-yl)-1H-purine-2,6(3H,7H)-dione]
markedly reduced: NECA-induced release of IL-8 (HPAECs [1]) | NECA-induced release of ET-1 (HPAECs [2]) | NECA-induced release of G-CSF (HPASMs [3]) | NECA-induced release of IL-6 (HPASMs [3]) | NECA-induced release of IL-8 (HPASMs [3]) | NECA-induced release of thromboxane B2 (HPASMs [5])
significantly attenuated: BLM-induced increase of interleukin (IL)-6 level ([10]; mice, BALF and plasma, day 33, ELISA, Compound A ~10 mg/kg/day in chow) | BLM-induced increase of ET-1 ([10]; mice, plasma (ELISA) and pulmonary vessel wall, Compound A ~10 mg/kg/day in chow)
attenuated: BLM-decreased arterial oxygenation levels ([10]; awake mice, Compound A ~10 mg/kg/day in chow, pulse oximetry) | BLM-induced increase in peri-vascular fibrosis (total collagen levels in the lung) ([10]; mice, Compound A ~10 mg/kg/day in chow day 15 to 33, Masson's trichrome) | BLM-induced increase in RV hypertrophy [10, 11] | BLM-induced increase in RVSP [10, 11] | BLM-induced increase in extent of vascular muscularization [10, 12] | BLM-induced increase in number of muscularized vessels [10, 12] | BLM-increased dynamic resistance of the lungs [10, 13] | BLM-increased quasi-static elastance [10, 13] | BLM-increased tissue damping [10, 13]
inhibited: NECA-induced increase in smooth muscle cell migration (HPASMs [4]) | NECA induced proliferation of HPASMs (HPASMs [7]) | increase of NOTCH3 expression induced by NECA (HPASMs [8])
drastically reduced: vascular wall thickening [9]
reduced: NECA-induced mRNA expression of ADAMTS1, ADAMTS8, CDH1, MMPI, MMP12, HAS1, ITGA7, COL1A1, COL8A1 and CTGF (HPASMs [6])
